Assay results: ChEMBL document CHEMBL4811282, “Synthesis and biological evaluation of novel 2-alkoxycarbonylallylester phosphonium derivatives as potential anticancer agents” (Bioorg Med Chem Lett, 2021)
Calls of active or inactive are those of the source. The rule behind the calls is not given here.

Experiments:
[1] = test system: 4T1; experiment: Antiproliferative activity against mouse 4T1 cells assessed as inhibition of cell proliferation measured by MTT assay; assay type: functional, cell-based
[2] = Antiproliferative activity against mouse 67NR cells assessed as inhibition of cell proliferation measured by MTT assay; assay type: functional, cell-based
[3] = test system: MDA-MB-231; experiment: Antiproliferative activity against human MDA-MB-231 cells assessed as inhibition of cell proliferation measured by MTT assay; assay type: functional, cell-based
[4] = test system: WiDr; experiment: Antiproliferative activity against human WiDr cells assessed as inhibition of cell proliferation measured by MTT assay; assay type: functional, cell-based
[5] = test system: MCF7; experiment: Antiproliferative activity against human MCF7 cells assessed as inhibition of cell proliferation measured by MTT assay; assay type: functional, cell-based
[6] = test system: MIA PaCa-2; experiment: Antiproliferative activity against human MIA PaCa-2 cells assessed as inhibition of cell proliferation measured by MTT assay; assay type: functional, cell-based
[7] = Antiproliferative activity against mouse 67NR cells assessed as inhibition of cell proliferation measured by SRB assay; assay type: functional, cell-based
[8] = test system: MIA PaCa-2; experiment: Antiproliferative activity against human MIA PaCa-2 cells assessed as inhibition of cell proliferation measured by SRB assay; assay type: functional, cell-based
[9] = test system: MCF7; experiment: Antiproliferative activity against human MCF7 cells assessed as inhibition of cell proliferation measured by SRB assay; assay type: functional, cell-based
[10] = test system: WiDr; experiment: Antiproliferative activity against human WiDr cells assessed as inhibition of cell proliferation measured by SRB assay; assay type: functional, cell-based
[11] = test system: 4T1; experiment: Antiproliferative activity against mouse 4T1 cells assessed as inhibition of cell proliferation measured by SRB assay; assay type: functional, cell-based
[12] = test system: MDA-MB-231; experiment: Antiproliferative activity against human MDA-MB-231 cells assessed as inhibition of cell proliferation measured by SRB assay; assay type: functional, cell-based
[13] = Toxicity against CD-1 mouse assessed as changes in body weight at 10 mg/kg for 6 days per week measured after 14 days; assay type: organism-based; conditions: in vivo
[14] = Cytotoxicity against human HDFa cells assessed as inhibition of cell proliferation; assay type: cell-based
[15] = Toxicity against CD-1 mouse assessed as changes in grooming pattern at 10 mg/kg for 6 days per week measured after 14 days; assay type: organism-based; conditions: in vivo, 336 h, time 14 day
[16] = test system: 4T1; experiment: Induction of mitochondrial stress in mouse 4T1 cells assessed as decrease in ATP production in presence of oligomycin/FCCP/antimycin A/rotenone by seahorse XFe96 analyser based assay; assay type: functional, cell-based; conditions: dose 0.625-10 µM
[17] = test system: 4T1; experiment: Induction of mitochondrial stress in mouse 4T1 cells assessed as effect on spare respiratory capacity at 5 to 10 uM in presence of oligomycin/FCCP/antimycin A/rotenone by seahorse XFe96 analyser based assay; assay type: functional, cell-based; conditions: dose 5-10 µM
[18] = test system: MDA-MB-231; experiment: Induction of mitochondrial stress in human MDA-MB-231 cells assessed as decrease in mitochondrial respiration at 0.625 to 10 uM in presence of oligomycin/FCCP/antimycin A/rotenone by seahorse XFe96 analyser based assay; assay type: functional, cell-based; conditions: dose 0.625-10 µM
[19] = test system: MDA-MB-231; experiment: Induction of mitochondrial stress in human MDA-MB-231 cells assessed as decrease in ATP production at 0.3125 to 10 uM in presence of oligomycin/FCCP/antimycin A/rotenone by seahorse XFe96 analyser based assay; assay type: functional, cell-based; conditions: dose 0.3125-10 µM
[20] = test system: 4T1; experiment: Induction of mitochondrial stress in mouse 4T1 cells assessed as proton leak across mitochondrial inner membrane in presence of oligomycin/FCCP/antimycin A/rotenone by seahorse XFe96 analyser based assay; assay type: functional, cell-based; conditions: dose 0.625-10 µM
[21] = test system: MDA-MB-231; experiment: Induction of mitochondrial stress in human MDA-MB-231 cells assessed as proton leak across mitochondrial inner membrane in presence of oligomycin/FCCP/antimycin A/rotenone by seahorse XFe96 analyser based assay; assay type: functional, cell-based; conditions: dose 0.3125-10 µM
[22] = test system: 4T1; experiment: Induction of mitochondrial stress in mouse 4T1 cells assessed as decrease in mitochondrial respiration in presence of oligomycin/FCCP/antimycin A/rotenone by seahorse XFe96 analyser based assay; assay type: functional, cell-based; conditions: dose 0.625-10 µM

SMILES	IC50 [1] [nM]	IC50 [3] [nM]	IC50 [5] [nM]	IC50 [6] [nM]	IC50 [2] [nM]	IC50 [4] [nM]	also measured
C=C(C[P+](c1ccc(F)cc1)(c1ccc(F)cc1)c1ccc(F)cc1)C(=O)OC	61900	91100	47000	100000	73900	19000	
COC(=O)/C(=C/c1ccc(C#N)cc1)C[P+](c1ccc(OC)cc1)(c1ccc(OC)cc1)c1ccc(OC)cc1	20400	12500	4490	7860	> 100000	4870	
COC(=O)/C(=C/c1ccc(C)cc1)C[P+](c1ccc(OC)cc1)(c1ccc(OC)cc1)c1ccc(OC)cc1	5230	9790	7470	340	2780	2580	
COC(=O)/C(=C/c1ccc(F)cc1)C[P+](c1ccc(OC)cc1)(c1ccc(OC)cc1)c1ccc(OC)cc1	4570	7410	1420	1290	5140	2140	
COC(=O)/C(=C/c1ccc(OC)cc1)C[P+](c1ccc(OC)cc1)(c1ccc(OC)cc1)c1ccc(OC)cc1.[Br-]	3360	3700	1400	1370	4590	1140	IC50 [7]: 2560 nM; IC50 [8]: 310 nM; IC50 [9]: 170 nM; Activity [13]: Non-Toxic; IC50 [10]: 760 nM; IC50 [11]: 1830 nM; IC50 [14]: 23900 nM; Activity [15]: Non-Toxic; IC50 [12]: 2190 nM
COC(=O)/C(=C/c1ccccc1)C[P+](c1ccc(OC)cc1)(c1ccc(OC)cc1)c1ccc(OC)cc1	7200	9270	2670	4590	4870	2740	
C=C(C[P+](c1ccccc1)(c1ccccc1)c1ccccc1)C(=O)OC	14800	28900	19900	27400	58400	7740	
C=C(C[P+](c1ccccc1)(c1ccccc1)c1ccccc1)C(=O)N(C)C	> 100000	> 100000	> 100000	> 100000	> 100000	81200	
COC(=O)/C(=C/c1ccc([N+](=O)[O-])cc1)C[P+](c1ccc(OC)cc1)(c1ccc(OC)cc1)c1ccc(OC)cc1	4730	8290	8830	5590	28700	5950	

Molecules with a lower IC50 [1], results first:

IC50 [1] [nM]	IC50 [3] [nM]	IC50 [5] [nM]	IC50 [6] [nM]	SMILES	IC50 [2] [nM]	IC50 [4] [nM]	also measured
2760	2880	1990	2870	C=C(C[P+](c1ccccc1)(c1ccccc1)c1ccccc1)C(=O)OC(C)(C)C	7570	2080	
1850	4870	2780	3600	C=C(C[P+](c1ccc(OC)cc1)(c1ccc(OC)cc1)c1ccc(OC)cc1)C(=O)OC	10600	1620	
1780	3790	2430	2660	C=C(C[P+](c1ccc(C)cc1)(c1ccc(C)cc1)c1ccc(C)cc1)C(=O)OC	5340	1480	
1210	1910	1240	730	COC(=O)/C(=C/c1ccc(Br)cc1)C[P+](c1ccc(OC)cc1)(c1ccc(OC)cc1)c1ccc(OC)cc1	2900	900	IC50 [7]: 1780 nM; IC50 [8]: 290 nM; IC50 [9]: 170 nM; IC50 [10]: 810 nM; IC50 [11]: 1250 nM; IC50 [12]: 940 nM
1080	2690	980	1390	C=C(C[P+](c1ccc(OC)cc1)(c1ccc(OC)cc1)c1ccc(OC)cc1)C(=O)OC(C)(C)C	2170	810	
980	3010	1370	590	COC(=O)/C(=C/c1ccc(Cl)cc1)C[P+](c1ccc(OC)cc1)(c1ccc(OC)cc1)c1ccc(OC)cc1		1320	
860	2100	640	360	COc1ccc([P+](C/C(=C\c2ccc(Br)cc2)C(=O)OC(C)(C)C)(c2ccc(OC)cc2)c2ccc(OC)cc2)cc1	620	950	Activity [16]: Dose-Dependent Effect; IC50 [7]: 470 nM; IC50 [8]: 200 nM; Activity [17]: Active; Activity [18]: Active; IC50 [9]: 63 nM; IC50 [10]: 140 nM; IC50 [11]: 500 nM; IC50 [14]: 5500 nM; Activity [19]: Active; Activity [20]: Dose-Dependent Effect; IC50 [12]: 580 nM; Activity [21]: Dose-Dependent Effect; Activity [22]: Dose-Dependent Effect
